Laboratory results: patent US20150094294A1, “COMPOUNDS AND METHODS FOR TREATING MALARIA” (Cellceutix Corporation, priority 2012, published 2015)
In brackets after ≈: the same amount, converted by molar mass.

Key:
Assay type in all cases: cell-based
HepG2 cells = test: Cytotoxicity against HepG2 cells; conditions: for Cytotoxicity HepG2 EC50: HepG2 cells
[1] = tested on: P. falciparum DD2 (chloroquine-resistant); test: Anti-malarial activity, P. falciparum DD2 culture, 72 hour, DNA content by flow cytometry; conditions: synchronized ring-stage parasites
Experimental: Numerous compounds were screened in cultures of the malaria parasite P. falciparum 3D7 (chloroquine-sensitive) and DD2 (chloroquine-resistant). The compounds were also screened for toxixcity against 3T3 cells, HepG2 cells, and in a hemolysis assay. In brief, P. falciparum parasites were cultured in RPMI 1640 (Invitrogen) supplemented with Albumax II (Invitrogen). For synchronization, schizont stage parasites were magnet purified using a SuperMACS™ II Cell Separation Unit (Miltenyi Biotech). For IC50 determinations, synchronized ring-stage parasites were plated at 0.5% parasitemia and 8% hematocrit in 96-well plates at a total volume of 50 μL. Serial dilutions of 2× concentration of the respective compound, ranging from 2.5 μM to 20 nM, were added to the wells to bring the total volume up to 100 μL and 4% hematocrit. Compounds were assayed for a 72 hour period, after which the cultures were fixed with a solution of 4% paraformaldehyde and 0.08% glutaraldhyde in PBS. The cells were then permeabilized with 0.25% Triton X-100, and SYTOX Green Nucleic Acid Stain (Invitrogen) in PBS was added to a final concentration of 5 μM. DNA content, as an indicator of parasitemia, was analyzed on an Accuri C6 Flow Cytometer with C-Sampler. IC50 curves were generated using GraphPad Prism (GraphPad Software).

3T3 cells = test: Cytotoxicity against 3T3 cells; conditions: for Cytotoxicity 3T3 EC50: 3T3 cells
[2] = tested on: P. falciparum 3D7 (chloroquine-sensitive); test: Anti-malarial activity, P. falciparum 3D7 culture, 72 hour, DNA content by flow cytometry; conditions: synchronized ring-stage parasites
Summary of the method: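 Magnet-synchronized ring-stage parasites in RPMI 1640/Albumax II were plated at 0.5% parasitemia, 4% final hematocrit, with compound added as 2× dilutions (2.5 μM to 20 nM) for 72 h. Fixed, Triton-permeabilized cells were stained with SYTOX Green (5 μM final), and DNA content was measured by flow cytometry to derive IC50.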

[3] = Cytotoxicity against HepG2 cells; conditions: human, HepG2 cells; read-out: Cytotoxicity HepG2 EC50
[4] = Cytotoxicity against 3T3 cells; conditions: mouse, 3T3 cells; read-out: Cytotoxicity 3T3 EC50
in vitro = test: in vitro
[5] = Plasmodium falciparum, 3D7, 72 h

| SMILES | EC50 (HepG2 cells) [µM] | IC50 [1] [µM] | EC50 (3T3 cells) [µM] | IC50 [2] [µM] | EC50 [3] [µM] | IC50 ([1]; Plasmodium falciparum) [µM] | EC50 [4] [µM] | EC50 (in vitro) [µg/mL] | IC50 [2, 5] [µM] | Cytotoxicity HepG2 EC50 (HepG2 cells) | Cytotoxicity 3T3 EC50 (3T3 cells) |
| --- | --- | --- | --- | --- | --- | --- | --- | --- | --- | --- | --- |
| CN(C)CCSc1cc(SCCN(C)C)c(C(F)(F)F)cc1NC(=O)c1cc(C(=O)Nc2cc(C(F)(F)F)c(SCCN(C)C)cc2SCCN(C)C)ncn1 [Compound 102] | 49.8 | 0.238 | < 2 | 0.064 | – | – | – | – | – | – | – |
| O=C(Nc1cc(C(F)(F)F)c(OC2CCNC2)cc1OC1CCNC1)c1cc(C(=O)Nc2cc(C(F)(F)F)c(OC3CCNC3)cc2OC2CCNC2)ncn1 (stereo not drawn) [Compound 103] | 382 | 0.207 | 256 | 0.147 | – | – | – | – | – | – | – |
| N=C(N)NCCSc1cc(SCCNC(=N)N)c(C(F)(F)F)cc1NC(=O)c1cc(C(=O)Nc2cc(C(F)(F)F)c(SCCNC(=N)N)cc2SCCNC(=N)N)ncn1 [Compound 114] | – | – | – | – | 57 | 0.656 | 31 | 61 (≈ 66.1 µM) | 0.672 | – | – |
| N=C(N)NCCSc1cc(SCCN)c(NC(=O)c2cc(C(=O)Nc3cc(C(F)(F)F)c(SCCNC(=N)N)cc3SCCN)ncn2)cc1C(F)(F)F [Compound 115] | – | – | – | – | 47 | 0.664 | 26 | 35 (≈ 41.7 µM) | 0.68 | – | – |
| N=C(N)NCCCc1cc(SCCN)c(NC(=O)c2cc(C(=O)Nc3cc(C(F)(F)F)c(CCCNC(=N)N)cc3SCCN)ncn2)cc1C(F)(F)F [Compound 116] | – | – | – | – | 95 | 0.398 | 76 | 39 (≈ 48.6 µM) | 0.706 | – | – |
| CC(C)(C)c1cc(N)c(SCCN)c(NC(=O)c2cccc(C(=O)Nc3cc(C(C)(C)C)cc(N)c3SCCN)n2)c1 [Compound 117] | 9 | 0.803 | 5 | 0.732 | – | – | – | – | – | – | – |
| N=C(N)NCCSc1ccc(NC(=O)Nc2ccc(SCCNC(=N)N)c(C(F)(F)F)c2)cc1C(F)(F)F [Compound 120] | 165 | 0.0459 | 65.1 | 0.083 | – | – | – | – | – | – | – |
| CCN(CC)CCN(CCN)c1c(NC(=O)Nc2cc(C(F)(F)F)cc([N+](=O)[O-])c2N(CCN)CCN(CC)CC)cc(C(F)(F)F)cc1[N+](=O)[O-] [Compound 123] | 433 | 0.331 | 284 | 0.157 | – | – | – | – | – | – | – |
| N=C(N)NCCCCOc1cc(OCCCCNC(=N)N)c(C(F)(F)F)cc1NC(=O)Nc1cc(C(F)(F)F)c(OCCCCNC(=N)N)cc1OCCCCNC(=N)N [Compound 128] | – | – | – | – | 232 | 0.886 | 121 | 58 (≈ 67.1 µM) | 0.881 | – | – |
| N=C(N)NCCCCC(=O)Nc1ccc(-c2nnc(-c3ccc(NC(=O)CCCCNC(=N)N)cc3)o2)cc1 [Compound 131] | – | – | – | – | 356 | 0.065 | 322 | 212 (≈ 397 µM) | 0.042 | – | – |
| CC(N)C(=O)Nc1ccc(-c2ccc(-c3ccc(NC(=O)C(C)N)cc3)cc2)cc1 (stereo not drawn) [Compound 136] | > 1000 | 0.421 | > 1000 | 0.178 | – | – | – | – | – | – | – |
| CC(C)(C)c1ccc(NC(=O)CCCCNC(=N)N)c(-c2ccc(-c3cc(C(C)(C)C)ccc3NC(=O)CCCCNC(=N)N)cc2)c1 [Compound 141] | 55 | 0.709 | 28 | 0.625 | – | – | – | – | – | – | – |
| N=C(N)NCCCOc1cc(OCCCNC(=N)N)c(-c2ccccc2)cc1-c1ccccc1 [Compound 143] | 119 | 0.102 | 74 | – | – | – | – | – | – | – | – |
| NCCN1CCc2ccc(NC(=O)c3cc(C(=O)Nc4ccc5c(c4)CCN(CCN)CC5)ncn3)cc2CC1 [Compound 146] | – | – | – | – | 373 | 0.331 | 373 | 123 (≈ 227 µM) | 0.308 | – | – |
| CC(C)N1CCc2ccc(NC(=O)c3cc(C(=O)Nc4ccc5c(c4)CCN(C(C)C)CC5)ncn3)cc2CC1 [Compound 147] | – | – | – | – | > 100 | 0.829 | > 100 | 560 (≈ 1040 µM) | 0.696 | – | – |
| N=C(N)NCCCc1cccc(-c2ccc3c4ccc(-c5cccc(CCCNC(=N)N)c5)cc4n(CCCNC(=N)N)c3c2)c1 [Compound 155] | – | – | – | – | 100 | 0.457 | 131 | 6 (≈ 9.73 µM) | 0.272 | – | – |
| N=C(N)NCCCCC(=O)Nc1ccc(Oc2cccc(Oc3ccc(NC(=O)CCCCNC(=N)N)cc3)c2)cc1 [Compound 157] | – | – | – | – | > 100 | 0.244 | > 100 | 299 (≈ 520 µM) | 0.322 | – | – |
| FC(F)(F)c1ccc(CN2CCNCC2)cc1Oc1ccc(Oc2cc(CN3CCNCC3)ccc2C(F)(F)F)cc1 [Compound 158] | – | – | – | – | 29 | 1.09 | 14 | 17 (≈ 28.6 µM) | 0.655 | – | – |
| Fc1cc(NC2CCNCC2)cc(Oc2ccc(Oc3cc(F)cc(NC4CCNCC4)c3)cc2)c1 [Compound 164] | – | – | – | – | 78 | 0.98 | 23 | 15 (≈ 30.3 µM) | 0.61 | – | – |
| NCc1cc(C(F)(F)F)ccc1Oc1ccc(Oc2ccc(C(F)(F)F)cc2CN)cc1 [Compound 166] | – | – | – | – | 71 | 1.23 | 17 | 364 (≈ 798 µM) | 0.991 | – | – |
| N=C(N)NCCCCOc1cc(OCCCCNC(=N)N)c(C(F)(F)F)cc1NC(=O)Nc1ccc(NC(=O)Nc2cc(C(F)(F)F)c(OCCCCNC(=N)N)cc2OCCCCNC(=N)N)cc1 [Compound 167] | – | – | – | – | 60 | 0.951 | 37 | 7 (≈ 7.01 µM) | 0.724 | – | – |
| N=C(N)NCCCCC(=O)Nc1cc(C(F)(F)F)cc(NC(=O)c2cc(C(=O)Nc3cc(C(F)(F)F)cc(NC(=O)CCCCNC(=N)N)c3SCCC(=O)O)ncn2)c1SCCC(=O)O [Compound 168] | – | – | – | – | > 100 | 0.098 | > 100 | > 1000 | 0.227 | – | – |
| N=C(N)NCCCCC(=O)Nc1cc(Br)cc(NC(=O)c2cc(C(=O)Nc3cc(Br)cc(NC(=O)CCCCNC(=N)N)c3SCCO)ncn2)c1SCCO [Compound 170] | – | – | – | – | 165 | 0.591 | 110 | 59 (≈ 62.7 µM) | 0.569 | – | – |
| N=C(N)NCCOc1ccccc1C(=O)Nc1ccc2c(c1)Cc1cc(NC(=O)c3ccccc3OCCNC(=N)N)ccc1-2 [Compound 172] | – | – | – | – | – | 0.297 | – | 22 (≈ 36.3 µM) | – | Insol. | Insol. |
| N=C(N)NCCCCC(=O)Nc1ccc(-c2ccc(NC(=O)CCCCNC(=N)N)c(C(F)(F)F)c2)cc1C(F)(F)F [Compound 173] | – | – | – | – | > 2000 | 0.274 | > 2000 | > 1000 | 0.204 | – | – |
| NCCSc1ccc(C(F)(F)F)cc1C(=O)Nc1ccc(-c2ccc(NC(=O)c3cc(C(F)(F)F)ccc3SCCN)cc2)cc1 [Compound 174] | – | – | – | – | < 16 | 0.393 | < 16 | 1 (≈ 1.47 µM) | 0.593 | – | – |
| COc1ccc(CN)cc1NC(=O)c1cc(C(=O)Nc2cc(CN)ccc2OC)ncn1 [Compound 175] | – | – | – | – | 362 | 0.564 | 302 | > 1000 | 0.423 | – | – |
| N=C(N)NCCc1cc(Br)cc(C#Cc2cc(C#Cc3cc(Br)cc(CCNC(=N)N)c3)cc(C(F)(F)F)c2)c1 [Compound 179] | – | – | – | – | – | 0.795 | – | 22 (≈ 32.6 µM) | 0.88 | insol | insol |
| NCCSc1c(N)cc(C(F)(F)F)cc1NC(=O)c1cn(C2CC2)c2cc(N3CCNCC3)c(F)cc2c1=O [Compound 181] | – | – | – | – | 154 | 0.74 | 81 | > 1000 | 0.688 | – | – |
